The values that follow come from US6670353B2, “Oxime-group containing oestrone sulphatase inhibitors” (Sterix Limited, priority 1997, dated 2003).

Data set [1] deals with T1, E1-STS enzyme (Homo sapiens, UniProt P08842).
T1 sequence (P08842 22-583): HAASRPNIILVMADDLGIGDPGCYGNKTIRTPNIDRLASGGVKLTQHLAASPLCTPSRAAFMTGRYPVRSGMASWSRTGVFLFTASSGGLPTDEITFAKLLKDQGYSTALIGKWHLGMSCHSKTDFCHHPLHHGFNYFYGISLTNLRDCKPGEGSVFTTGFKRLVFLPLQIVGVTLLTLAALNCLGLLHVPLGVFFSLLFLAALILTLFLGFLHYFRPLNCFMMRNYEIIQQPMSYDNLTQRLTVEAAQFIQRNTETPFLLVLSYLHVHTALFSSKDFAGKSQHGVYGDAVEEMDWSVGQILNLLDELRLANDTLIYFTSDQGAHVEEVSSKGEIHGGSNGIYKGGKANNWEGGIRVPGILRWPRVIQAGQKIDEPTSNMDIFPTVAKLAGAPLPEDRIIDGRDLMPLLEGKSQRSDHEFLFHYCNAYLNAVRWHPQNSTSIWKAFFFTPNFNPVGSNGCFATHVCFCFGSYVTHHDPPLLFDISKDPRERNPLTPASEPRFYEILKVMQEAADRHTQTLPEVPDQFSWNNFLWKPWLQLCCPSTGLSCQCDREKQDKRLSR
To be noted: cited from earlier work.

Data set [2] has as its target T2, Steroid sulphatase (Steryl Sulphatase EC 3.1.6.2) (Homo sapiens, UniProt P08842).
T2 construct: endogenous in cells; host or cells: MCF-7 human breast cancer cells
T2 sequence (P08842 22-583): T1 sequence (P08842 22-583)
To be noted: 0.1 μM; cited from earlier work.

Data set [3] deals with memory. The settings on record: rats; cited from earlier work.
Data set [4] deals with T3, rat liver DHA-STS (Rattus norvegicus, UniProt P15589).
T3 construct: host or cells: rat liver (in vivo)
T3 sequence (P15589 20-577): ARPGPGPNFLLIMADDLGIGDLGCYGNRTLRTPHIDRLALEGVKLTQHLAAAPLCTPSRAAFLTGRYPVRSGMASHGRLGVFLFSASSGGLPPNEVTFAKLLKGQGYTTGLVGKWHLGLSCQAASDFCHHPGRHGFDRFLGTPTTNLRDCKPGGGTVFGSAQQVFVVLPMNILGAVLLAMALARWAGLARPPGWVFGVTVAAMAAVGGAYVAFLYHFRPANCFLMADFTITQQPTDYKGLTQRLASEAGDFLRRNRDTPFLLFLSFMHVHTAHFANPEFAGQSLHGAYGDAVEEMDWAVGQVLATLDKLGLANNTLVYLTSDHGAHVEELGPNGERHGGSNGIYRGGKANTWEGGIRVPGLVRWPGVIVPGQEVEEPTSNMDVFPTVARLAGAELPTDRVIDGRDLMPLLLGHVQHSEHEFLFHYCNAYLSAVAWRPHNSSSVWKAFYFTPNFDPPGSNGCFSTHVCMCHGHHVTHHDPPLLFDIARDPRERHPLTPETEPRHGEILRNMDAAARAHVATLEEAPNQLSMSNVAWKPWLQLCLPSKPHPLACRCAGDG
To be noted: administered either orally or subcutaneously; cited from earlier work.

Data set [5] addresses T4, rat liver E1-STS (Rattus norvegicus, UniProt P15589).
T4 construct: host or cells: rat liver (in vivo)
T4 sequence (P15589 20-577): T3 sequence (P15589 20-577)
The settings on record: administered either orally or subcutaneously; cited from earlier work.

For data set [6], the target named is T5, Rat Liver Sulphatase (Rattus norvegicus, UniProt P15589).
T5 construct: from tissue; host or cells: rat liver after oral dosing
T5 sequence (P15589 20-577): T3 sequence (P15589 20-577)
Briefly: In vivo inhibition (rat liver sulphatase). The settings on record: 2 mg/kg/d×5 ol, ORAL DOSE. The method, then: In Vivo Inhibition (Rat Liver Sulphatase)
99.2±0.42%. @ 2 mg/kg/d×5 ol, ORAL DOSE.

Data set [7] relates to uterine growth. Description: Measurement of estrogenic activity (uterine weight). The format is in vivo. The settings on record: rats, oral, such as 0.1 mg/Kg/day for five days; uterine weight/whole body weight×100. As for the experimental part:
Compounds according to the present invention such as Compound 2 (such as at levels of 0.1 mg/Kg/day for five days) are administered orally to rats with another group of animals receiving vehicle only (propylene glycol). At the end of the study uteri are obtained and weighed with the results being expressed as uterine weight/whole body weight×100.

Data set [8] addresses T6, Steroid sulphatase (oestrone sulphatase) (Homo sapiens, UniProt P08842).
T6 construct: Sulphatase-positive human placenta from normal term pregnancies; from tissue; host or cells: human term placenta (2000 g supernatant / microsomes)
T6 sequence (P08842 22-583): T1 sequence (P08842 22-583)
Description: Inhibition of steroid sulphatase activity in placental microsomes. The format is biochemical. The settings on record: read-out: % INHIBITION (mean ± S.D., n = 3) PLACENTAL MICROSOMES
The method, then:
(§1) In the examples reference is made to steroid sulphatase inhibition. This is determined according to the teachings of PCT/GB92/01587 wherein the ability of compounds to inhibit oestrone sulphatase activity is assessed using either intact MCF-7 breast cancer cells or placental microsomes. For ease of reference, those teachings are repeated here as Example 1.
Sulphatase-positive human placenta from normal term pregnancies (Obstetric Ward, St. Mary's Hospital, London) were thoroughly minced with scissors and washed once with cold phosphate buffer (pH 7.4, 50 mM) then re-suspended in cold phosphate buffer (5 ml/g tissue). Homogenisation was accomplished with an Ultra-Turrax homogeniser, using three 10 second bursts separated by 2 minute cooling periods in ice. Nuclei and cell debris were removed by centrifuging (4° C.) at 2000 g for 30 minutes and portions (2 ml) of the supernatant were stored at −20° C. The protein concentration of the supernatants was determined by the method of Bradford (Anal. Biochem., 72, 248-254 (1976)).
Incubations (1 ml) were carried out using a protein concentration of […], substrate concentration of […] [6,7-^3H]oestrone-3-sulphate (specific activity 60 Ci/mmol from New England Nuclear, Boston, Mass., U.S.A.) and an incubation time of 20 minutes at 37° C. Eight concentrations of the compounds to be tested may be employed: 0 (i.e. control); 0.05 mM; 0.1 mM; 0.2 mM; 0.4 mM; 0.6 mM; 0.8 mM; 1.0 mM. After incubation each sample was cooled and the medium (1 ml) was pipetted into separate tubes containing [^14C]oestrone (7×10^3 dpm) (specific activity 97 Ci/mmol from Amersham International Radiochemical Centre, Amersham, U.K.). The mixture was shaken thoroughly for 30 seconds with toluene (5 ml). […] A portion (2 ml) of the organic phase was removed, evaporated and the ^3H and ^14C content of the residue determined by scintillation spectrometry. The mass of oestrone-3-sulphate hydrolysed was calculated from the ^3H counts obtained (corrected for the volumes of the medium and organic phase used, and for recovery of [^14C]oestrone added) and the specific activity of the substrate.

In data set [9] the target is T2, Steroid sulphatase (Steryl Sulphatase EC 3.1.6.2). Briefly: Inhibition of steroid sulphatase activity in intact MCF-7 cells. The format is cell-based. To be noted: MCF7, read-out: % INHIBITION (mean ± S.D., n = 3) MCF-7 cells. As for the experimental part: as §1
Steroid sulphatase (Steroid sulphatase is defined as: Steryl Sulphatase EC 3.1.6.2.) activity was measured in vitro using intact MCF-7 human breast cancer cells. This hormone dependent cell line is widely used to study the control of human breast cancer cell growth. […] Cells were maintained in Minimal Essential Medium (MEM) (Flow Laboratories, Irvine, Scotland) containing 20 mM HEPES, 5% foetal bovine serum, 2 mM glutamine, non-essential amino acids and 0.075% sodium bicarbonate. Up to 30 replicate 25 cm^2 tissue culture flasks were seeded with approximately 1×10^5 cells/flask using the above medium. Cells were grown to 80% confluency and medium was changed every third day.
Intact monolayers of MCF-7 cells in triplicate 25 cm^2 tissue culture flasks were washed with Earle's Balanced Salt Solution (EBSS from ICN Flow, High Wycombe, U.K.) and incubated for 3-4 hours at 37° C. with 5 pmol (7×10^5 dpm) [6,7-^3H]oestrone-3-sulphate (specific activity 60 Ci/mmol from New England Nuclear, Boston, Mass., U.S.A.) in serum-free MEM (2.5 ml) together with oestrone-3-sulphamate (11 concentrations: 0; 1 fM; 0.01 pM; 0.1 pM; 1 pM; 0.01 nM; 0.1 nM; 1 nM; 0.01 mM; 0.1 mM; 1 mM). […] A portion (2 ml) of the organic phase was removed, evaporated and the ^3H and ^14C content of the residue determined by scintillation spectrometry. The mass of oestrone-3-sulphate hydrolysed was calculated from the ^3H counts obtained (corrected for the volumes of the medium and organic phase used, and for recovery of [^14C]oestrone added) and the specific activity of the substrate. […] The number of cell nuclei per flask was determined using a Coulter Counter after treating the cell monolayers with Zaponin. […]

The conditions of data set [10]: cited from earlier work.

As to oestrone-3-S-sulphamate, the “mode of inhibition of the E1-STS enzyme” value in [1] is “weaker non-time-dependent inactivators”.
Consider `CC12CCC3c4ccc(OS(N)(=O)=O)cc4CCC3C1CCC2=O` (stereo not shown) [EMATE, oestrone-3-sulphamate], for which, in data set [2], the “inhibition of E1-STS activity in intact MCF-7 cells” value is reported as “more than 99%”. Besides, the memory enhancing effect result in [3] was “memory enhancing effect”. The “mode of inhibition of the E1-STS enzyme” value in data set [1] is “time- and concentration-dependent manner”. Moreover, the “inhibition of rat liver DHA-STS activity” value in [4] is recorded as 99%. Also, in data set [5], the “inhibition of rat liver E1-STS activity” value is 99%.
For oestrone-3-N-sulphamate, the “mode of inhibition of the E1-STS enzyme” value in [1] is recorded as “weaker non-time-dependent inactivators”.
For `C[C@]12CCC3c4ccc(OS(N)(=O)=O)cc4CCC3C1CCC2=NO` (stereo partly shown) [Compound 2, Oestrone Oxime-3-O-sulphamate], in data set [6], the “In vivo inhibition (rat liver sulphatase)” value came to 99.2±0.42%. In addition, the “Estrogenic activity: effect on uterine growth” value in data set [7] is “has an effect on uterine growth”. In [8] (inhibitor concentration 0.1 nM), the inhibition at 0.0001 µM was determined as 2.9 ± 1.1%. The inhibition at 0.001 µM in [8] (inhibitor concentration 1 nM) came out at 8 ± 3.3%. The inhibition at 0.01 µM in [8] (inhibitor concentration 10 nM) was determined as 19.3 ± 2.4%. Moreover, the inhibition at 0.1 µM in data set [8] (inhibitor concentration 0.1 μM) worked out at 52.3 ± 0.1%; in data set [9] (inhibitor concentration 0.1 μM) it was 96 ± 1.8%. Further, the inhibition at 1 µM in [8] (inhibitor concentration 1 μM) was determined as 89.8 ± 0.2%; in data set [9] (inhibitor concentration 1 μM), 98 ± 0.6%. Also, the inhibition at 10 µM was determined as 98.7 ± 0.1% in data set [8] (inhibitor concentration 10 μM) and 99 ± 0.2% in data set [9] (inhibitor concentration 10 μM).
For `C[C@]12CC[C@@H]3c4ccc(OS(=O)(=O)O)cc4CC[C@H]3[C@@H]1CCC2=O` [Compound E1S, oestrone sulphate], in [10], the half-life in blood was 10 to 12 h.
